# Data: patent publication US20260184707A1, “PHARMACEUTICAL COMPOUNDS FOR THE TREATMENT OF COMPLEMENT MEDIATED DISORDERS” (ALEXION PHARMACEUTICALS, INC., priority 2022, published 2026)
# Target: T1, Human complement C1s enzyme (Homo sapiens, UniProt P09871)
# T1 construct: purified from human serum, Complement Technology, Inc; purchased Complement Technology, Inc; host or cells: human serum (plasma-derived native protein)
# T1 sequence (P09871 438-688 limits assumed): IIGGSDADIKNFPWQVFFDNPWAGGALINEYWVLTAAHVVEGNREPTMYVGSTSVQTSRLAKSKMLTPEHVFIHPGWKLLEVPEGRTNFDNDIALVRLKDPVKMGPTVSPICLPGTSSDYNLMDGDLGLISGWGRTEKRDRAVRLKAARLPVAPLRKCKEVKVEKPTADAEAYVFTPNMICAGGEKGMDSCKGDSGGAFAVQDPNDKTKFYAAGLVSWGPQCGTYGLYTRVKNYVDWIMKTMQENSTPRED
# T1 sequence (P09871 16-437 partner limits assumed): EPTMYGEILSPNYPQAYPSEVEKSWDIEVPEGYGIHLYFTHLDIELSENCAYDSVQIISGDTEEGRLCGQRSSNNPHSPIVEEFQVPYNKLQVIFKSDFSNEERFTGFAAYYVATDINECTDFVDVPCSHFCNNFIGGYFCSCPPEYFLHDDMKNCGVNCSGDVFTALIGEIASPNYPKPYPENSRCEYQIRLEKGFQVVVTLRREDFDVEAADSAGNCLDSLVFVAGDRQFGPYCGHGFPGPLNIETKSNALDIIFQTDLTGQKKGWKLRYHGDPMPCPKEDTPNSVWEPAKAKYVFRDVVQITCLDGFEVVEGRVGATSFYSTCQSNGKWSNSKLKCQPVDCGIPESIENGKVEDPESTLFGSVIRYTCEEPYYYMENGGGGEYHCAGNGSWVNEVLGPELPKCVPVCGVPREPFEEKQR
# Experiment: Human C1s enzyme assay
# Format: biochemical
# Details: human complement C1s enzyme 1.16 nM, substrate Z-L-Lys-SBzl, A405; read-out: IC50 (Stars)
# Summary of the method: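 Thioesterase activity followed colorimetrically (DTNB, A405, 30-s reads) using 100 μM Z-L-Lys-SBzl substrate. Enzyme, human serum-derived C1s at 1.16 nM final, was incubated with test compound for 5 min, room temperature, pH 7.5 Tris buffer with 1 M NaCl. Rate-versus-concentration data fitted by nonlinear regression for IC50.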
row,IC50 [nM],Compound
1,< 100,"C[C@@H](Nc1cnc(-c2cscn2)n(CC(=O)NCc2cc3cnccc3[nH]2)c1=O)c1ccc(-c2ccccc2F)cc1 [Compound 446, (R)-N-((1H-pyrrolo[3,2-c]pyridin-2-yl)methyl)-2-(5-((1-(2′-fluoro-[1,1′-biphenyl]-4-yl)ethyl)amino)-6-oxo-2-(thiazol-4-yl)pyrimidin-1(6H)-yl)acetamide]"
2,< 100,"O=C(Cn1c(-c2ccccc2)cnc(NC(=O)c2ccc(Oc3ccccc3)cc2)c1=O)NCc1cc2cnccc2[nH]1 [Compound 177, N-(4-(2-(((1H-pyrrolo[3,2-c]pyridin-2-yl)methyl)amino)-2-oxoethyl)-3-oxo-5-phenyl-3,4-dihydropyrazin-2-yl)-4-phen-oxybenzamide]"
3,< 100,"O=C(Cn1c(-c2ccccc2)ncc(NCc2ccc3c(c2)-c2ccccc2C3(F)F)c1=O)NCc1cc2cnccc2[nH]1 [Compound 22, N-((1H-pyrrolo[3,2-c]pyridin-2-yl)methyl)-2-(5-(((9,9-difluoro-9H-fluoren-3-yl)meth-yl)amino)-6-oxo-2-phenyl-pyrimidin-1(6H)-yl)acetamide]"
4,< 100,"O=C(Cn1c(-c2ccccc2)ncc(NC(=O)c2coc(-c3cccnc3)n2)c1=O)NCc1cc2cnccc2[nH]1 [Compound 231, N-(1-(2-(((1H-pyrrolo[3,2-c]pyridine-2-yl)methyl)amino)-2-oxoethyl)-6-oxo-2-phenyl-1,6-dihydropyrimidin-5-yl)-2-(pyridine-3-yl)oxazole-4-carboxamide]"
5,< 100,"O=C(Cn1c(N2CCOCC2)ncc(NCc2ccc3oc4ccccc4c3c2)c1=O)NCc1cc2cnccc2[nH]1 [Compound 260, N-((1H-pyrrolo[3,2-c]pyridin-2-yl)methyl)-2-(5-((dibenzo [b,d]furan-2-ylmethyl)amino)-2-morpholino-6-oxopyrimidin-1(6H)-yl)acetamide]"
6,< 100,"C[C@H](Nc1cnc(-c2ccccc2)n(CC(=O)NCc2cc3cnccc3[nH]2)c1=O)c1ccc2oc3ccccc3c2c1 [Compound 127, (S)—N-((1H-pyrrolo[3,2-c]pyridine-2-yl)methyl)-2-(5-((1-(dibenzo[b,d]furan-2-yl)ethyl)amino)-6-oxo-2-phenylpyrimidin-1(6H)-yl)acetamide]"
7,< 100,"O=C(Cn1c(-c2ccccc2)ncc(NC(=O)c2ccc(Oc3ccc(C(F)(F)F)cc3)cc2)c1=O)NCc1cc2cnccc2[nH]1 [Compound 50, N-(1-(2-(((1H-pyrrolo[3,2-c]pyridin-2-yl)methyl)amino)-2-oxoethyl)-6-oxo-2-phenyl-1,6-dihydropyrimidin-5-yl)-4-(4-(trifluoromethyl)phenoxy)-benzamide]"
8,< 100,"C[C@@H](Nc1cnc(-c2ccccc2F)n(CC(=O)NCc2cc3cnccc3[nH]2)c1=O)c1coc(-c2ccccc2)n1 [Compound 321, (R)—N-((1H-pyrrolo[3,2-c]pyridine-2-yl)methyl)-2-(2-(2-fluorophenyl)-6-oxo-5-((1-(2-phenyloxazol-4-yl)ethyl)amino)pyrimidin-1(6H)-yl)acetamide]"
9,< 100,"C[C@@H](Nc1cnc(-c2ccccn2)n(CC(=O)NCc2cc3cnccc3[nH]2)c1=O)c1ccc2oc3ccccc3c2c1 [Compound 323, (R)-N-((1H-pyrrolo[3,2-c]pyridin-2-yl)methyl)-2-(5-((1-(dibenzo[b,d]furan-2-yl)ethyl)-amino)-6-oxo-2-(pyridin-2-yl)-pyrimidin-1(6H)-yl)acetamide]"
10,< 100,"O=C(Cn1c(-c2ccccc2)ncc(NC(=O)c2ccc(Oc3ccc(Br)cc3)cc2)c1=O)NCc1cc2cnccc2[nH]1 [Compound 51, N-(1-(2-(((1H-pyrrolo[3,2-c]pyridin-2-yl)methyl)amino)-2-oxoethyl)-6-oxo-2-phenyl-1,6-dihydropyrimidin-5-yl)-4-(4-bromophenoxy)benzamide]"
11,100 to 1000,"C[C@@H](Nc1cnc(N2CCSCC2)n(CC(=O)NCc2cc3cnccc3[nH]2)c1=O)c1ccc2oc3ccccc3c2c1 [Compound 384, (R)-N-((1H-pyrrolo[3,2-c]pyridin-2-yl)methyl)-2-(5-((1-(dibenzo[b,d]furan-2-yl)ethyl)-amino)-6-oxo-2-thiomorpho-linopyrimidin-1(6H)-yl)acet-amide]"
12,100 to 1000,"C[C@@H](Nc1cnc(OC2CC2)n(CC(=O)NCc2cc3cnccc3[nH]2)c1=O)c1ccc2oc3ccccc3c2c1 [Compound 343, (R)—N-((1H-pyrrolo[3,2-c]pyridine-2-yl)methyl)-2-(2-cyclopropoxy-5-((1-(dibenzo[b,d]furan-2-yl)ethyl)amino)-6-oxopyrimidin-1(6H)-yl)acetamide]"
13,< 100,"O=C(Cn1c(-c2ccccc2)ncc(NCCCC(=O)c2ccc(Oc3ccccc3)cc2)c1=O)NCc1cc2cnccc2[nH]1 [Compound 88, N-((1H-pyrrolo[3,2-c]pyridin-2-yl)methyl)-2-(6-oxo-5-((4-oxo-4-(4-phenoxyphenyl)but-yl)amino)-2-phenylpyrimidin-1(6H)-yl)acetamide]"
14,> 1000,"COc1c(NC(=O)c2ccc(-c3ccccc3)s2)ccc(-c2ccccc2)c1CC(=O)NCc1cc2cnccc2[nH]1 [Compound 129, N-(2-(2-(((1H-Pyrrolo[3,2-c]pyridine-2-yl)methyl)amino)-2-oxoethyl)-3-methoxy-[1,1′-biphenyl]-4-yl)-5-phenylthiophene-2-carboxamide]"
15,< 100,"O=C(Cn1c(N2CCCCC2)cnc(NCc2noc3ccccc23)c1=O)NCc1cc2cnccc2[nH]1 [Compound 480, N-((1H-pyrrolo[3,2-c]pyridin-2-yl)methyl)-2-(3-((benzo[d]isoxazol-3-ylmethyl)amino)-2-oxo-6-(piperidin-1-yl)pyrazin-1(2H)-yl)acetamide]"
16,< 100,"C[C@@H](Nc1cnc(C2=CCCCC2)n(CC(=O)NCc2cc3cnccc3[nH]2)c1=O)c1coc(-c2ccccc2)n1 [Compound 450, (R)-N-((1H-pyrrolo[3,2-c]pyridin-2-yl)methyl)-2-(2-(cyclohex-1-en-1-yl)-6-oxo-5-((1-(2-phenyloxazol-4-yl)-ethyl)amino)pyrimidin-1(6H)-yl)acetamide]"
17,< 100,"O=C(Cn1c(-c2ccccc2)ncc(NC(=O)c2noc(-c3ccccc3)n2)c1=O)NCc1cc2cnccc2[nH]1 [Compound 219, N-(1-(2-(((1H-pyrrolo[3,2-c]pyridine-2-yl)methyl)amino)-2-oxoethyl)-6-oxo-2-phenyl-1,6-dihydropyrimidin-5-yl)-5-phenyl-1,2,4-oxadiazole-3-carboxamide]"
18,> 1000,"COc1ncc(N[C@H](C)c2ccc3oc4ccccc4c3c2)c(=O)n1CC(=O)NCc1cc2cnccc2[nH]1 [Compound 319, (R)—N-((1H-pyrrolo[3,2-c]pyridine-2-yl)methyl)-2-(5-((1-(dibenzo[b,d]furan-2-yl)ethyl)amino)-2-methoxy-6-oxopyrimidin-1(6H)-yl)acetamide]"
19,> 1000,"Cc1ncc(N[C@H](C)c2ccc3oc4ccccc4c3c2)c(=O)n1CC(=O)NCc1cc2cnccc2[nH]1 [Compound 378, (R)-N-((1H-pyrrolo[3,2-c]pyridin-2-yl)methyl)-2-(5-((1-(dibenzo[b,d]furan-2-yl)ethyl)-amino)-2-methyl-6-oxopyrimi-din-1(6H)-yl)acetamide]"
20,< 100,"O=C(Cn1c(-c2ccccc2)ncc(NC(=O)c2csc(-c3ccccc3)c2)c1=O)NCc1cc2cnccc2[nH]1 [Compound 218, N-(1-(2-(((1H-pyrrolo[3,2-c]pyridin-2-yl)methyl)amino)-2-oxoethyl)-6-oxo-2-phenyl-1,6-dihydropyrimidin-5-yl)-5-phen-ylthiophene-3-carboxamide]"
21,> 1000,"O=C(Cn1c(-c2ccccc2)ncc(NC(=O)c2cc3ccc2CCc2ccc(cc2)CC3)c1=O)NCc1cc2cnccc2[nH]1 [Compound 83, N-(1-(2-(((1H-pyrrolo[3,2-c]pyridine-2-yl)methyl)amino)-2-oxoethyl)-6-oxo-2-phenyl-1,6-dihydropyrimidin-5-yl)-1,4(1,4)-dibenzenacyclohexaphane-1^2-carboxamide]"
22,< 100,"COc1ccccc1-c1ccc(CNc2cnc(-c3ccccc3)n(CC(=O)NCc3cc4cnccc4[nH]3)c2=O)cc1 [Compound 257, N-((1H-pyrrolo[3,2-c]pyridin-2-yl)methyl)-2-(5-(((2′-meth-oxy-[1,1′-biphenyl]-4-yl)meth-yl)amino)-6-oxo-2-phenylpyr-imidin-1(6H)-yl)acetamide]"
23,< 100,"O=C(Cn1c(-c2ccccc2)ncc(NCCCc2ccc(OC3CS(=O)(=O)C3)cc2)c1=O)NCc1cc2cnccc2[nH]1 [Compound 193, N-((1H-pyrrolo[3,2-c]pyridine-2-yl)methyl)-2-(5-((3-(4-((1,1-dioxidothietan-3-yl)oxy)phenyl)propyl)amino)-6-oxo-2-phenylpyrimidin-1(6H)-yl) acetamide]"
24,< 100,"O=C(Cn1c(-c2ccccc2)ncc(NC(=O)c2ccc(-c3cnc[nH]3)cc2)c1=O)NCc1cc2cnccc2[nH]1 [Compound 174, N-(1-(2-(((1H-pyrrolo[3,2-c]pyridine-2-yl)methyl)amino)-2-oxoethyl)-6-oxo-2-phenyl-1,6-dihydropyrimidin-5-yl)-4-(1H-imidazol-5-yl)benzamide]"
